Test results as given in patent publication US20110224226A1, “COMPOSITIONS AND METHODS FOR INCREASING BLOOD PLATELET LEVELS IN HUMANS” (AKARX, Inc., priority 2006, published 2011).

Columns and labels:
[1] = pharmacokinetics after intravenous and oral administration in mice; type: in vivo; conditions: mouse, plasma
Excerpt: After a single intravenous administration of the drug of Formula I as the monomaleate salt to mice and dogs, plasma concentrations of Formula I decreased in a biphasic manner.

[2] = in-vitro plasma protein binding, rabbits; type: in vitro ADME; conditions: rabbit, 0.05 to 50 μg/mL
Experimental: The in-vitro plasma protein binding of the drug of Formula I was independent of concentration over the concentration range of 0.05 to 50 μg/mL and was 87.2-89.1% in mice; 87.6-89.2% in rats; 88.3-92.0% in rabbits; […] in dogs; 97.0-97.6% in monkeys; and 96.3-96.6% in humans.

[3] = test system: liver microsomal enzymes; assay: metabolism by mouse liver microsomal enzymes; type: in vitro ADME
[4] = biological target: 2D6 (Homo sapiens, UniProt P10635); assay: inhibition of human liver cytochrome P450 2D6; type: in vitro ADME; conditions: human liver cytochrome P450 isoenzyme
2D6, sequence (P10635 whole entry): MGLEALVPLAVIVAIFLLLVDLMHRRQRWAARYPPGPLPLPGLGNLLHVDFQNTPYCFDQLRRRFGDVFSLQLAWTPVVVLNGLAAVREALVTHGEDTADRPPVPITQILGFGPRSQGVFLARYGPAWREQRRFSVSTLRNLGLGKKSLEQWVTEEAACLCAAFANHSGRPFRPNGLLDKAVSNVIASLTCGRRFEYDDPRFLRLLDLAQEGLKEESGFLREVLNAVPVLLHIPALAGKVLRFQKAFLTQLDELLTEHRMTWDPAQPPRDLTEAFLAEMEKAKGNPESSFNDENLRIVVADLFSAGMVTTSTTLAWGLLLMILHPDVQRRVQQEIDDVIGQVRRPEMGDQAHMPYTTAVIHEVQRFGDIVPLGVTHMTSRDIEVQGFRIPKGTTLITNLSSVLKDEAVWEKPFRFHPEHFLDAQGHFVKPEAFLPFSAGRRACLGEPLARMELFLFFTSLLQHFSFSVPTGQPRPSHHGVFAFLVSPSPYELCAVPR

[5] = 4-week repeat dose toxicity in rats; type: in vivo, rat
[6] = Example 2 multi-dose study: safety; type: in vivo, human; conditions: up to 20 mg daily for ten (10) to fourteen (14) days, healthy volunteers
Experimental: A double-blind, placebo-controlled, dose rising study was performed in healthy male and female volunteers. Each dose cohort received either placebo or active treatment as an oral suspension once daily for fourteen (14) consecutive days. The dose of study drug was prepared and administered as described in Example 1 above. The doses administered in this multiple dose study were based on the safety and tolerability assessment of the doses administered in Example 1.
Based on the results of Example 1, the starting dose was 3 mg. Based on the safety and tolerability results from Example 1, the dose was scheduled to be escalated to 10, 20, 50 and 100 mg per day for 14 consecutive days. Successive dose cohorts were not treated until the previous cohort completed 14 days of treatment and the safety follow-up visit on Day 21.

SMILES: O=C(Nc1nc(-c2cc(Cl)cs2)c(N2CCN(C3CCCCC3)CC2)s1)c1cnc(N2CCC(C(=O)O)CC2)c(Cl)c1 [Formula I, 1-(3-chloro-5-{[4-(4-chlorothiophen-2-yl)-5-(4-cyclohexylpiperazin-1-yl)thiazol-2-yl]carbamoyl}pyridin-2-yl)piperadine-4-carboxylic acid]
- half-life ([1]; mice, single intravenous administration as the monomaleate salt, read-out: terminal elimination half-life (t1/2) (converted)): 2.7 h
- bioavailability ([1]; oral administration, read-out: absolute bioavailability): 91%
- fraction unbound [2]: 0.08 to 0.117
- metabolism by liver microsomal enzymes [3]: does not appear to be metabolized
- inhibition of CYP2D6 [4]: did not inhibit
- reversibility of gastric mucosa changes ([5]; rat, on drug withdrawal): resolved on drug withdrawal
- CK and aldolase levels ([5]; rat, repeat dosing 4 weeks): Elevated levels of CK and aldolase
- muscle degeneration/necrosis in femoral, lower thigh or multifides muscles ([5]; rat, repeat dosing 4 weeks): 1 or 2 rats per dose group
- changes in the gastric mucosa ([5]; rats, repeat dosing 4 weeks, 3, 10, 30, 100 mg/kg/day): degeneration of chief cells and parietal cells
- tolerability (drug-related clinical or laboratory adverse experiences) [6]: well tolerated
